From patent US12673961B2 (Agios Pharmaceuticals, Inc., priority 2022, dated 2026)
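Note: Ten-point dose curve from 2-fold serial dilutions, run in duplicate at 0.5% DMSO final, tracer step used 20 µM sepiapterin and 800 µM labeled phenylalanine.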

These molecules were tested against T1, human PAH with the R408W mutation (Homo sapiens, UniProt P00439, R408W) (assay: Cell Based Phenylalanine Flux Assay). Conditions: A375 cells expressing human R408W PAH; 24 hrs compound incubation; 13C-Tyrosine by LC-MS; average where tested multiple times; read-out: AC50.
T1 construct: expressed in transfected cells
T1 sequence (P00439 1-452 R408W): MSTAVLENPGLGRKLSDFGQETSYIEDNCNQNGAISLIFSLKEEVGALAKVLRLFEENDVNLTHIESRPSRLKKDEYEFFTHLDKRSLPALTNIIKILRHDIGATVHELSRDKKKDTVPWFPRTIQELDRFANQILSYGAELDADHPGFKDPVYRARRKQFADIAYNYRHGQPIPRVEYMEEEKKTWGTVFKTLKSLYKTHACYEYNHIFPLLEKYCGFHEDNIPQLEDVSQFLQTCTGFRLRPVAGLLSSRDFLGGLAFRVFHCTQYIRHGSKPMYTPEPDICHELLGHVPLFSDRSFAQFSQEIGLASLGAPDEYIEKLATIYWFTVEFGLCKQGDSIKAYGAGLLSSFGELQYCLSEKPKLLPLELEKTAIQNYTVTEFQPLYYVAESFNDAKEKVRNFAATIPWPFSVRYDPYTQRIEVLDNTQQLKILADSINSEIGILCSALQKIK
Procedure: Compounds were resuspended in DMSO, and 2-fold serial dilutions were performed to generate a 10-point dose curve. Compounds were added to plated cells in a total volume of 100 μl, and a final DMSO concentration of 0.5%. Each compound was tested in duplicate. Following compound addition, cells were placed in a 5% CO2, 37° C. tissue culture incubator for 24 hrs. […] 20 μM sepiapterin and 800 μM 13C9,15N-Phenylalanine were added. After 4 hours, cell media was removed. An aliquot of 10 μl of cell media was combined with 200 μl of extraction buffer (80% acetonitrile/20% H2O) for each well. Determination of ^13C-Tyrosine concentration was assessed by liquid chromatography mass spectrometry.
Where a compound was tested multiple times, the average value of the tests is reported.
`O=C(c1nnc(-c2cccnc2)o1)N1CCc2[nH]cnc2[C@@H]1c1cc2cccc(C(F)(F)F)n2n1` [Example 1341, (R)-(5-(pyridin-3-yl)-1,3,4-oxadiazol-2-yl)(4-(7-(trifluoromethyl)pyrazolo [1,5-a]pyridin-2-yl)-6,7-dihydro-1H-imidazo[4,5-c]pyridin-5(4H)-yl)methanone] gave an AC50 of 1000 to 5000 nM.
In the case of `O=C(c1nnc(-c2cccnc2)o1)N1CCc2[nH]cnc2[C@H]1c1cc2ccccn2n1` [Example 1346, (S)-(4-(pyrazolo[1,5-a]pyridin-2-yl)-6,7-dihydro-1H-imidazo[4,5-c]pyridin-5(4H)-yl)(5-(pyridin-3-yl)-1,3,4-oxadiazol-2-yl)methanone], the AC50 is reported as 500 to 1000 nM.
`Cc1c(-c2nnc(C(=O)N3CCc4[nH]cnc4[C@@H]3c3cc4c(C(F)F)cccn4n3)o2)cnn1C` [Example 1349] was tested, and the AC50 was > 5000 nM.
`CC(C)(F)c1nnc(C(=O)N2CCc3[nH]cnc3[C@H]2c2cc3c(C(F)F)cccn3n2)o1` [Example 1350, (S)-(4-(4-(difluoromethyl)pyrazolo[1,5-a]pyridin-2-yl)-6,7-dihydro-1H-imidazo [4,5-c]pyridin-5(4H)-yl)(5-(2-fluoropropan-2-yl)-1,3,4-oxadiazol-2-yl)methanone] was tested, and the AC50 was < 500 nM.
With `Cn1ccc(-c2nnc(C(=O)N3CCc4[nH]cnc4[C@@H]3c3cc4c(C(F)F)cccn4n3)o2)n1` [Example 1353, (R)-(4-(4-(difluoromethyl)pyrazolo[1,5-a]pyridin-2-yl)-6,7-dihydro-1H-imidazo [4,5-c]pyridin-5(4H)-yl)(5-(1-methyl-1H-pyrazol-3-yl)-1,3,4-oxadiazol-2-yl)methanone] the AC50 was > 5000 nM.
For `Cc1ncccc1-c1nnc(C(=O)N2CCc3[nH]cnc3[C@H]2c2cc3c(Cl)cccn3n2)o1` [Example 1356, (S)-(4-(4-chloropyrazolo [1,5-a]pyridin-2-yl)-6,7-dihydro-1H-imidazo[4,5-c]pyridin-5(4H)-yl)(5-(2-methylpyridin-3-yl)-1,3,4-oxadiazol-2-yl)methanone], the AC50 was < 500 nM.
In the case of `Cc1ncccc1-c1nnc(C(=O)N2CCc3[nH]cnc3[C@@H]2c2cc3c(Cl)cccn3n2)o1` [Example 1357, (R)-(4-(4-chloropyrazolo [1,5-a]pyridin-2-yl)-6,7-dihydro-1H-imidazo[4,5-c]pyridin-5(4H)-yl)(5-(2-methylpyridin-3-yl)-1,3,4-oxadiazol-2-yl)methanone], the AC50 is reported as > 5000 nM.
`O=C(c1nnc(-c2cnccn2)o1)N1CCc2[nH]cnc2[C@H]1c1cc2cccc(C(F)(F)F)n2n1` [Example 1361, (S)-(5-(pyrazin-2-yl)-1,3,4-oxadiazol-2-yl)(4-(7-(trifluoromethyl)pyrazolo [1,5-a]pyridin-2-yl)-6,7-dihydro-1H-imidazo[4,5-c]pyridin-5(4H)-yl)methanone] was tested, and the AC50 was 500 to 1000 nM.
In the case of `O=C(c1nnc(-c2cnccn2)o1)N1CCc2[nH]cnc2[C@H]1c1cc2ccccn2n1` [Example 1362, (S)-(5-(pyrazin-2-yl)-1,3,4-oxadiazol-2-yl)(4-(pyrazolo[1,5-a]pyridin-2-yl)-6,7-dihydro-1H-imidazo[4,5-c]pyridin-5(4H)-yl)methanone], the AC50 is reported as 500 to 1000 nM.
In the case of `Cc1ncccc1-c1nnc(C(=O)N2CCc3[nH]cnc3[C@H]2c2cc3ccccn3n2)o1` [Example 1364], the AC50 is reported as < 500 nM.
In the case of `Cc1ncccc1-c1nnc(C(=O)N2CCc3[nH]cnc3[C@@H]2c2cc3ccccn3n2)o1` [Example 1365, (R)-(5-(2-methylpyridin-3-yl)-1,3,4-oxadiazol-2-yl)(4-(pyrazolo[1,5-a]pyridin-2-yl)-6,7-dihydro-1H-imidazo[4,5-c]pyridin-5(4H)-yl)methanone], the AC50 is reported as > 5000 nM.
Work on `Cc1c(-c2nnc(C(=O)N3CCc4[nH]cnc4[C@@H]3c3cc4cccc(C(F)F)n4n3)o2)cnn1C` [Example 1367, (R)-(4-(7-(difluoromethyl)pyrazolo[1,5-a]pyridin-2-yl)-6,7-dihydro-1H-imidazo[4,5-c]pyridin-5(4H)-yl)(5-(1,5-dimethyl-1H-pyrazol-4-yl)-1,3,4-oxadiazol-2-yl)methanone] yielded an AC50 of 1000 to 5000 nM.
